17 molecules from ChEMBL document CHEMBL1139731, “Identification of non-furan containing A2A antagonists using database mining and molecular similarity approaches” (Bioorg Med Chem Lett, 2006) can be followed below.

One test has as its target Adenosine receptor A2a (Homo sapiens, UniProt P29274). Kind of test: Displacement of [3H]CGS21680 from human recombinant adenosine A2A receptor.
For the next test, the target named is T1, Adenosine receptor A1 (Homo sapiens, UniProt P30542).
T1 sequence (P30542 whole entry): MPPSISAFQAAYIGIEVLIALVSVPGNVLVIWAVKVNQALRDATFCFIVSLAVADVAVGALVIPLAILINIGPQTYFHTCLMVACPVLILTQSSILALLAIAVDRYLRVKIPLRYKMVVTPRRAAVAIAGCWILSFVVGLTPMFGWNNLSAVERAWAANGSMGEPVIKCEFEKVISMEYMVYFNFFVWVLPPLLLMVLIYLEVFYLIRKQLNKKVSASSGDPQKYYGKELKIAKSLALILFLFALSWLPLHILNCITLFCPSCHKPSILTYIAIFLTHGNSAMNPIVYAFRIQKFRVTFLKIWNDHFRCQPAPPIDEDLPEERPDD
Briefly: Displacement of [3H]DPCPX from recombinant adenosine A1 receptor. For orientation: In a radioligand displacement assay an active substance lowers the binding of a labelled ligand.

Chain of Adenosine receptor A2a (P29274 whole entry): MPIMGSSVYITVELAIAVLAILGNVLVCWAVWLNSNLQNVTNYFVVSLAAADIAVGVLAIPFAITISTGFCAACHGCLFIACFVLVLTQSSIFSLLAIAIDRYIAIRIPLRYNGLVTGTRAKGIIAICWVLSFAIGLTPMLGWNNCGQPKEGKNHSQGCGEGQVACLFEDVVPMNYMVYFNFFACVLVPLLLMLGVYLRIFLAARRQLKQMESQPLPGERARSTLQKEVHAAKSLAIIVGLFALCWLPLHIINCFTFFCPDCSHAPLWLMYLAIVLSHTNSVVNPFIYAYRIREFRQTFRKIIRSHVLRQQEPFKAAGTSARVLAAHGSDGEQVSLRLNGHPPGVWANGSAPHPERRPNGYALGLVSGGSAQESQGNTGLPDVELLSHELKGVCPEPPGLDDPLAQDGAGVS

The term Ki denotes the equilibrium dissociation constant of an inhibitor or competing ligand from its target. As to `N#Cc1c(-c2ccc(F)cc2)cc(C2CC2)nc1N`, the Ki at Adenosine receptor A2a was 0.106 µM (antagonist); at Adenosine receptor A1, 0.865 µM (antagonist).

As for `COc1cccc(-c2cc(C(F)(F)F)nc(NCc3ccc(F)cc3)n2)c1`, the Ki at Adenosine receptor A2a was 0.29 µM (antagonist); on Adenosine receptor A1, > 10 µM.

In the case of `CCSc1nc(N)nc(-c2ccccc2)n1`, the values for the Ki on Adenosine receptor A2a and on Adenosine receptor A1 were 0.005 µM (antagonist) and 0.067 µM (antagonist), respectively.

As for `N#Cc1c(-c2ccccc2Cl)cc(-c2ccccc2)nc1N`, the Ki is 0.089 µM (antagonist) on Adenosine receptor A2a and 0.239 µM (antagonist) on Adenosine receptor A1.

As to `N#Cc1c(N)nc2c(c1-c1ccc(F)cc1)CCC2`, on Adenosine receptor A2a, the Ki is 0.232 µM (antagonist).

In the case of `Fc1ccc(CNc2nc(-c3ccccc3)cc(C(F)(F)F)n2)cc1`, the Ki at Adenosine receptor A2a is 0.287 µM (antagonist); on Adenosine receptor A1 it was > 10 µM.

As for `Fc1ccc(CNc2nc(-c3cccs3)cc(C(F)(F)F)n2)cc1`, the figures for the Ki on Adenosine receptor A2a and at Adenosine receptor A1 were 0.287 µM (antagonist) and > 10 µM, respectively.

`CCOc1cc(-c2cc(-c3ccc(O)cc3)nc(N)c2C#N)ccc1O`: the Ki was 0.267 µM (antagonist) on Adenosine receptor A2a and 0.042 µM (antagonist) at Adenosine receptor A1.

On to `N#Cc1c(-c2ccc(Cl)cc2)cc(-c2ccccc2)nc1N`, for which the Ki at Adenosine receptor A2a is 0.201 µM (antagonist); on Adenosine receptor A1, 0.192 µM (antagonist).

Regarding `CSc1nc(N)nc(-c2cccc(-c3ccc4[nH]ccc4c3)c2)n1`, the Ki on Adenosine receptor A2a was 0.031 µM (antagonist); at Adenosine receptor A1, 0.218 µM (antagonist).

For the molecule `Fc1ccc(CNc2nc(-c3ccc(Cl)cc3)cc(C(F)(F)F)n2)cc1`, the values for the Ki on Adenosine receptor A2a and at Adenosine receptor A1 were 0.454 µM (antagonist) and > 10 µM, respectively.

For `COc1cc(-c2cc(-c3ccc(O)cc3)nc(N)c2C#N)ccc1O`, the Ki on Adenosine receptor A2a is 0.151 µM (antagonist); on Adenosine receptor A1, 0.094 µM (antagonist).

Turning to `N#Cc1c(-c2ccc(Cl)cc2)cc(-c2ccccc2Cl)nc1N`, the Ki is 0.403 µM (antagonist) at Adenosine receptor A2a and 1.74 µM (antagonist) at Adenosine receptor A1.

As for `Cc1ccc(-c2cc(-c3ccccc3)nc(N)c2C#N)cc1`, the Ki on Adenosine receptor A2a is 0.118 µM (antagonist); on Adenosine receptor A1, 0.274 µM (antagonist).

With `N#Cc1c(-c2ccc(F)cc2)cc(-c2ccccc2)nc1N`, the Ki is 0.087 µM (antagonist) at Adenosine receptor A2a and 0.059 µM (antagonist) on Adenosine receptor A1.

On to `COc1ccc(-c2cccc(-c3nc(N)nc(SC)n3)c2)cn1`, for which the Ki on Adenosine receptor A2a is 0.023 µM (antagonist); on Adenosine receptor A1, 0.84 µM (antagonist).

Take `N#Cc1c(-c2ccc(Cl)c(Cl)c2)cc(-c2cccnc2)nc1N`: the Ki on Adenosine receptor A2a was 0.21 µM (antagonist); on Adenosine receptor A1 it was > 10 µM.
